US7700559B2, “Gonadotropin releasing hormone analogues conjugates with steroid hormones” (Medical Research Council, priority 2003, dated 2010)

How the values were obtained:
rat type I GnRHR = biological target: T1, rat type I GnRHR (Rattus norvegicus, UniProt P30969); assay: Total inositol phosphate production in HEK293 cells stably expressing rat type I GnRHR; type: cell-based; conditions: n=2, read-out: EC50, stimulation of inositol phosphate production
T1 construct: expressed in transfected cells
T1 sequence (P30969 1-327): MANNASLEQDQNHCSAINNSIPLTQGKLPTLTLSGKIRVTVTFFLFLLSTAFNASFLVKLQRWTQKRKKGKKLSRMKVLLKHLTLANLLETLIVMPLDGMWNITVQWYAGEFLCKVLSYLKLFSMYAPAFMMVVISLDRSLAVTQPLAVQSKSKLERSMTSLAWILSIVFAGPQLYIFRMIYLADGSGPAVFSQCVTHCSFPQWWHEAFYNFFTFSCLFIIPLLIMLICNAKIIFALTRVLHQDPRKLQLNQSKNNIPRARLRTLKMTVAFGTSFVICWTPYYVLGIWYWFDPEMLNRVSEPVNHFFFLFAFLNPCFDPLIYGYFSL
Experimental: A HEK293 stable cell line expressing the rat type I GnRHR developed in our laboratory was used for the inositol phosphate production assays. This cell line was maintained in DMEM containing 10% fetal calf serum, glutamine and penicillin/streptomycin with the addition of G418 at 500 μg/ml throughout culture. Where required, plates were coated with Poly-L-Lysine to enhance adherence to plasticware during assay.
Measurement of Total Inositol Phosphate Production
Rat type I GnRH receptive expressing HEK293 cells were plated out onto 12 well plates and incubated at 37° C., 5% CO2 for 24 hours, then incubated in special DMEM containing 1% dialysed FCS (with glutamine and penicillin/streptomycin) and 1 μl/well of myo-[2-^3H]inositol for a further 48 hours. After aspiration of media and washing with incubation buffer, a further 500 μl buffer containing 10 mM LiCl was added to the plates and then incubated at 37° C. for 30 mins. 1 μM agonist was added to each well to a final concentration of 0.1 μM and the plates were incubated under the same conditions for a further 1 hour. The reaction was terminated with 500 μl 10 mM formic acid, incubated at 4° C. for 30 mins. […] After addition of formic acid, ammonium formate (1 ml, 0.1M, 1M) and vortexing, 800 μl of the supernatant was counted with scintillation fluid.

[1] = biological target: T2, type I human GnRH receptor (Homo sapiens, UniProt P30968); assay: Membrane binding assay of GnRH agonist-progesterone conjugate, COS-1 cells transfected with hGnRH-R, 125I[His5,D-Tyr6]GnRH; conditions: n=1, data not shown, read-out: ED50, binding to type I human GnRH receptor
T2 construct: expressed in transfected cells; host or cells: COS-1 cells (membranes)
T2 sequence (P30968 1-328): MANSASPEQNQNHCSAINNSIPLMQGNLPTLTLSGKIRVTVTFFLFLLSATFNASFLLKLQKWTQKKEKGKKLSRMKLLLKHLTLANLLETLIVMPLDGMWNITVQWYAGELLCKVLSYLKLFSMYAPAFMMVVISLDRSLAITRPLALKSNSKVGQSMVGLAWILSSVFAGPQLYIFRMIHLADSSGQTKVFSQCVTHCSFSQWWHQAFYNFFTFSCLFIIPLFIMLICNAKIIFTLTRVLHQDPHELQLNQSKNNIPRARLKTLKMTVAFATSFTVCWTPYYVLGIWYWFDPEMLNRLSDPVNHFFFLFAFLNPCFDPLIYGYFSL
Experimental: Membrane binding assay of GnRH agonist-progesterone conjugates was carried out on COS-1 cells transfected with hGnRH-R. COS-1 cells in 100 mm dishes were washed twice in HEPES modified DMEM and transfected with 15 μg DNA in filter-sterilised DEAE dextran with HEPES buffered saline, penicillin/streptomycin and DMEM. After five hours incubation at 37° C., the media was removed and replaced with DMEM containing penicillin/streptomycin, 2% FCS and 2% chloroquine 10 mM and plates were incubated for a further one hour. The media was aspirated, cells were washed and normal media was added until assay 24 hours later.
Membrane Binding Assay of GnRH agonist-Progesterone Conjugate:
Transfected COS-1 cells were washed in PBS, removed from plates and centrifuged at 1500 rpm for five mins to pellet cells. The PBS was aspirated and the cells were resuspended in homogenization buffer (20 mM Tris, 2 mM MgCl2, pH 7.2), vortexed and left on ice for 10 minutes. The cell suspension was transferred to a 7 ml homogeniser (Jencons (Scientific) Ltd., Leighton Buzzard, Buckinghamshire) and plunged 15 times with a loose plunger and 15 times with a tight plunger. The homogenized cells were then centrifuged at 4° C. for 10 mins at top speed and the supernatant was removed with a vacuum pump. […] Filters were then counted immediately on a gamma counter.

[2] = In vivo male rabbit study, disappearance of iodinated analogue from whole blood; conditions: iodinated compound i.v. into ear vein, male rabbit, whole blood
Experimental: In Vivo Studies in the Male Rabbit
To determine biological half-life of GnRH agonist-progesterone conjugates, 0.5 ml saline containing approximately 10,000,000 cpm of iodinated [D-Ala^6]GnRH or [D-Lys^6]GnRH-progesterone conjugate was injected as an i.v. bolus into the ear vein of a male rabbit. Rabbits were sedated with 0.4 ml Aceprom 10 (Milborrow Animal Health, Republic of South Africa) injected intramuscularly 3-4 minutes before start of experiment. A repeat injection was carried out after 2 hours. 1 ml blood samples were collected in heparinized tubes from an indwelling cannula placed in a vein of the contralateral ear. Whole blood was counted directly to determine disappearance from circulation. All experiments were carried out in accordance with Republic of South Africa regulations.

[3] = biological target: T3, cortisol binding globulin (CBG) (Homo sapiens, UniProt P08185); assay: Plasma protein binding assay, competition with [3H]cortisol in human pregnant serum; conditions: data not shown, read-out: IC50, prevention of [3H]cortisol binding
T3 construct: from tissue; host or cells: human pregnant serum (charcoal-stripped, diluted)
T3 sequence (P08185 23-405): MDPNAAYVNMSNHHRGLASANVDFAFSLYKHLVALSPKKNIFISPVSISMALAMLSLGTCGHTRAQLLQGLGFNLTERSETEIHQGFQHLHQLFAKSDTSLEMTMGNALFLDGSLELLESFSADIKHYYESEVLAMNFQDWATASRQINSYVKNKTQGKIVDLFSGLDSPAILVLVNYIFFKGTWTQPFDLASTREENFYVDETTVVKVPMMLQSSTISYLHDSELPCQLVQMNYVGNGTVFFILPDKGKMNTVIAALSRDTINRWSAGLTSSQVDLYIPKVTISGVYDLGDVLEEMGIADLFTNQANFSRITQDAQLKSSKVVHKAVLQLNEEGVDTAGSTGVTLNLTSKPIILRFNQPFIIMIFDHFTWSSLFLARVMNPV
Experimental: (§1) Plasma Protein Binding Assay
(§2) Plasma protein binding was determined by the competitive binding of steroid conjugates, in the presence of [1,2,6,7-^3H]progesterone or [^3H]cortisol, to pregnant guinea pig plasma or human pregnant serum respectively. 20 μl serum was diluted with 2 ml dextran-coated charcoal solution (0.25 g dextran T-70, 2.5 g charcoal decolorizing powder, activated acid washed [Merck Ltd., Lutterworth, Leicestershire] in 500 ml PBS) and incubated at room temperature. After 30 mins the suspension was centrifuged at 3000×g for 10 minutes, the supernatant was removed and the pellet was discarded. 100 μl of diluted serum was aliquoted into centrifuge tubes, followed by 1 pmol[^3H]steroid/100 μl PBS. 100 μl PBS (total binding) or 200 pmol/100 μl unlabelled competing ligand ([…]) was added to diluted serum in duplicate. Tubes were vortexed and incubated at room temperature for 1 hour, then for an additional 15 minutes on ice. A further 750 μl dextran-coated charcoal suspension was added and incubated for 10 minutes on ice, followed by centrifugation at 4° C. for 5 minutes. The supernatant fluid was counted.

[4] = biological target: progesterone binding globulin (PBG); assay: Plasma protein binding assay, competition with [3H]progesterone in pregnant guinea pig plasma; conditions: read-out: IC50, inhibition of [3H]progesterone binding to PBG
Experimental: as §1, §2

## CC(=O)[C@H]1CC[C@H]2[C@@H]3CCC4=CC(=O)CC[C@]4(C)[C@H]3[C@H](OC(=O)CCC(=O)NCCCC[C@@H](NC(=O)[C@H](Cc3ccc(O)cc3)NC(=O)[C@H](CO)NC(=O)[C@H](Cc3c[nH]c4ccccc34)NC(=O)[C@H](Cc3c[nH]cn3)NC(=O)[C@@H]3CCC(=O)N3)C(=O)N[C@@H](CC(C)C)C(=O)N[C@@H](CCCNC(=N)N)C(=O)N3CCC[C@H]3C(=O)NCC(N)=O)C[C@]12C [GnRH agonist-progesterone conjugate, [DLys^6]GnRH conjugated to 11α-hydroxyprogesterone 11-succinate at the ε amine group of the D-Lys at position 6]
Rat type I GnRHR
  EC50: 0.52 nM
[1]
  EC50: 0.29 nM
[2]
  second phase half-life (metabolism and renal clearance): 53 ± 13 min
[3]
  IC50: 1200 nM
[4]
  IC50: 0.29 nM
